This is an account of results in article PMC7180839, “Biophysical Screens Identify Fragments That Bind to the Viral DNA-Binding Proteins EBNA1 and LANA” (Molecules, 2020).

pKd: −log10 of the molar value.

One experiment concerns the target T1, EBNA1 (468–607) (Epstein-Barr virus, UniProt P03211).
T1 construct: using purified EBNA1 (468–607) mixed in a 2 μl:2 μl ratio with reservoir solution; made in house
Briefly: X-ray crystallography, fragment soaked into preformed EBNA1 crystals. Conditions: crystal soak 4 h; 1.3 Å structure, PDB 6VH6; pocket that contacts the DNA phosphate backbone. The format is binding, Epstein–Barr virus (EBV). From the text:
We determined the high-resolution crystal structure of one fragment bound to EBNA1 (Figure 4). We soaked the fragment AC37287 into preformed crystals of EBNA1 (468–607). The crystal of AC37287 diffracted to 1.3 Ångstroms and was solved by isomorphous replacement. The electron density around AC38287 is unambiguous at this resolution (Figure 4A). The aliphatic portion of AC37287 binds into a deep hydrophobic pocket made up of the hydrophobic residues I481, L520, L582, V483 and I593 (Figure 4B). The lactone is sandwiched between residues N519 and T590 within the range of a hydrogen bond of N519 (Figure 4C). This molecule binds in a region that is important for DNA binding (Figure 4D).
Crystals were grown using the vapor diffusion method in 24–48 h using purified EBNA1 (468–607) mixed in a 2 μl:2 μl ratio with reservoir solution (50 mM MES, pH 6.5, 0–150 mM NaCl, and 10 mM DTT). Crystals were transferred to a solution containing 25–30% glycerol and 0.2 μl of 50 mM of AC37287, incubated for 4 h and flash frozen for data collection. Data were collected on the 21BM beamline at the Argonne Light Source (ALS) at Argonne National Laboratory. Data were indexed, reduced, and scaled using HKL3000. The structures were solved by isomorphous replacement. Models were refined in PHENIX, version 1.17, using simulated annealing, minimization, and individual B-factor refinement. […]

Experiment [1] concerns the target T2, EBNA1-CAC (EBNA1 DNA-binding domain) (Epstein-Barr virus, UniProt P03211, C531S/C560S/C591S/C598S).
T2 construct: His-tag-SUMO (N, cleaved yes); made in house; host or cells: Escherichia coli
T2 sequence (P03211 459-607 C531S/C560S/C591S/C598S): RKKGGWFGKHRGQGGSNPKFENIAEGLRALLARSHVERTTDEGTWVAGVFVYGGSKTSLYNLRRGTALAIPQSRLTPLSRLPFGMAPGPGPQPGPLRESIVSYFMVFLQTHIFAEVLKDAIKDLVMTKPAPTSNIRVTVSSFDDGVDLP
Nature of the experiment: SPR affinity assay, EBNA1-CAC immobilized on CM5 chip via thiol coupling. Also noted: species or system Epstein–Barr virus (EBV). The note with it: Biacore S200, 1:1 interaction model, global Rmax, fragment 79-900 μM, 5% DMSO, pH 7.1. On the procedure: SPR experiments were performed on a Biacore™ S200 instrument (GE Healthcare). […] As an alternative, we developed a thiol coupling method to immobilize EBNA1 and LANA to the Biacore sensor chip. We synthesized a construct that expressed a version of EBNA1 and LANA DNA-binding domains with the internal cysteines mutated to serine and Cys-Ala-Cys added to the C terminus (EBNA1-CAC and LANA-CAC).
The 1000 fragments from the library were screened at a concentration of 1 mM (5% DMSO). Hits were selected on the basis of the following criteria: a relative binding response normalized with respect to the positive control, no indication that multiple fragments were bound, R > Rmax (R = Response units, Rmax = the maximum binding capacity based on control fragment) and sensorgram shapes consistent with fragment binding (rapid on and off rates). Based on these criteria, 94 EBNA1 fragments and 104 LANA fragments were selected for further validation to measure binding affinities, which were determined to range from 0.2 to >10 mM. […]
To validate fragments from the primary screen, an affinity assay was performed. […] Binding sensorgrams were processed by first subtracting the binding response recorded from the control surface (reference flow cell), followed by solvent correction. […] Affinities were assessed using a global Rmax determined by reference compounds. […]

T1 sequence (P03211 468-607): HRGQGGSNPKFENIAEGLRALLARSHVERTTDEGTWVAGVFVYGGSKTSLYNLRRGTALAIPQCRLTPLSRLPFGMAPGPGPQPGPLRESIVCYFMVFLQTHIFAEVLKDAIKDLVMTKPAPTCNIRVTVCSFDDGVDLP

On to `Cc1ccc2oc(=O)cc(O)c2c1` [AC37287], for which the “fragment binding observed in crystal structure” value at EBNA1 (468–607) is recorded as “binds in this pocket of EBNA1”.
As for `OCCCCn1cnc2cc(Cl)c(Cl)cc21` [SPB07625], the pKd in experiment [1] was 2.68.
